Test [1] concerns M. tuberculosis strain 1097. Kind of test: Drug sensitivity testing, Bactec MGIT 960. It is filed as cell-based, Mycobacterium tuberculosis. Also on record: key: sensitive (S); resistant (R).
In test [2] the test system is M. tuberculosis clinical isolate 1670. Kind of test: microbe, parasite or virus in culture. The test is classed as cell-based. To be noted: Mycobacterium tuberculosis.
Test [3] has as its system M. tuberculosis clinical isolate 1120. Briefly: microbe, parasite or virus in culture. It is filed as cell-based. The note with it: Mycobacterium tuberculosis.
The subject of the next test is M. tuberculosis H37Rv. Kind of test: Drug sensitivity testing, Bactec MGIT 960. On the set-up: key: sensitive (S); resistant (R). The test is classed as cell-based, Mycobacterium tuberculosis. The note with it: strain H37Rv.
The subject of test [4] is M. tuberculosis strain 952. Kind of test: Drug sensitivity testing, Bactec MGIT 960. The test is classed as cell-based, Mycobacterium tuberculosis. Also on record: key: sensitive (S); resistant (R).
Test [5] deals with M. tuberculosis clinical isolate 1762. Kind of test: microbe, parasite or virus in culture. The note with it: Mycobacterium tuberculosis. It is filed as cell-based.
Test [6] relates to M. tuberculosis clinical isolate 512. Kind of test: microbe, parasite or virus in culture. The test is classed as cell-based. The note with it: Mycobacterium tuberculosis.
Test [7] deals with M. tuberculosis clinical isolate 368. Kind of test: microbe, parasite or virus in culture. It is filed as cell-based. To be noted: Mycobacterium tuberculosis.
In test [8] the test system is M. tuberculosis clinical isolate 1097. Kind of test: microbe, parasite or virus in culture. The test is classed as cell-based. To be noted: Mycobacterium tuberculosis.
Test [9] has as its system M. tuberculosis strain 1120. Kind of test: Drug sensitivity testing, Bactec MGIT 960. The test is classed as cell-based, Mycobacterium tuberculosis. Also on record: key: sensitive (S); resistant (R).
Test [10] relates to M. tuberculosis clinical isolate 571. Briefly: microbe, parasite or virus in culture. It is filed as cell-based. The note with it: Mycobacterium tuberculosis.
Test [11] relates to M. tuberculosis strain 571. Kind of test: Drug sensitivity testing, Bactec MGIT 960. It is filed as cell-based, Mycobacterium tuberculosis. Also on record: key: sensitive (S); resistant (R).
The test system of test [12] is M. tuberculosis strain 368. Briefly: Drug sensitivity testing, Bactec MGIT 960. It is filed as cell-based, Mycobacterium tuberculosis. Also on record: key: sensitive (S); resistant (R).
For test [13], the system named is M. tuberculosis strain 1762. Briefly: Drug sensitivity testing, Bactec MGIT 960. It is filed as cell-based, Mycobacterium tuberculosis. Also on record: key: sensitive (S); resistant (R).
In test [14] the test system is M. tuberculosis strain 600. Briefly: Drug sensitivity testing, Bactec MGIT 960. The test is classed as cell-based, Mycobacterium tuberculosis. On the set-up: key: sensitive (S); resistant (R).
Test [15] concerns M. tuberculosis clinical isolate 600. Kind of test: microbe, parasite or virus in culture. The test is classed as cell-based. To be noted: Mycobacterium tuberculosis.
Test [16] has as its system M. tuberculosis strain 1670. Briefly: Drug sensitivity testing, Bactec MGIT 960. It is filed as cell-based, Mycobacterium tuberculosis. On the set-up: key: sensitive (S); resistant (R).
The subject of test [17] is M. tuberculosis strain 512. Briefly: Drug sensitivity testing, Bactec MGIT 960. The test is classed as cell-based, Mycobacterium tuberculosis. Also on record: key: sensitive (S); resistant (R).
The test system of test [18] is M. tuberculosis H37Rv strain (ATCC 27294). Kind of test: Resazurin microtiter assay (REMA). The test is classed as cell-based. The note with it: Mycobacterium tuberculosis, drug alone. As to the method: REMA assays were performed in sterile 96-well microtiter plates with round-bottom wells, sealed in a plastic bag. Mycobacteria were cultured in Middlebrook 7H11 medium supplemented with OADC. […] Final bacterial inocula were approximately 1–5 × 10^5 CFU/mL. Plates were incubated at 37 °C and were read after 72 h. Once the final visual reading was performed, 30 μL of 0.02% resazurin was added to each well before reincubation overnight. Bacterial growth was measured by the change in color from blue (oxidized state) to pink (reduced), and minimal inhibitory concentration (MIC) was defined as the lowest drug concentration that prevented the color change and, therefore, the mycobacteria growth.
(Alamar Blue is a resazurin reagent that responds to reducing activity.)

The test system of test [19] is M. tuberculosis clinical isolate 952. Briefly: microbe, parasite or virus in culture. The test is classed as cell-based. To be noted: Mycobacterium tuberculosis.

SMILES strings stand for the structures. In brackets after ≈: the same amount, converted by molar mass.

The values below come from paper PMC7760137, “Solid Lipid Nanoparticles as Formulative Strategy to Increase Oral Permeation of a Molecule Active in Multidrug-Resistant Tuberculosis Management” (Pharmaceutics, 2020).

In the case of `CO[C@H]1/C=C/O[C@@]2(C)Oc3c(C)c(O)c4c(O)c(c(/C=N/N5CCN(C)CC5)c(O)c4c3C2=O)NC(=O)/C(C)=C\C=C\[C@H](C)[C@H](O)[C@@H](C)[C@@H](O)[C@@H](C)[C@H](OC(C)=O)[C@@H]1C` [RIF, rifampicin], the “Drug sensitivity test result” value in test [1] is “S”; in the test on M. tuberculosis H37Rv, “S”; in [4], “R”; in test [9], “R”; in test [11] it was “R”; in test [12], “S”. Also, the “Drug sensitivity test result” value in test [13] is “R”; in [14] it was “R”; in [16] it was “S”; in [17] it was “R”. The MIC in [2] is 0.125 µg/mL (≈ 0.152 µM); in test [3], 8 µg/mL (≈ 9.72 µM); in [5], more than 2 µg/mL; in test [6] it was more than 2 µg/mL; in test [7], 0.25 µg/mL (≈ 0.304 µM); in test [8] it was 0.25 µg/mL (≈ 0.304 µM). Further, the MIC in [10] is more than 2 µg/mL; in [15] it was more than 2 µg/mL; in [18], 0.25 µg/mL (≈ 0.304 µM); in test [19], 0.5 µg/mL (≈ 0.608 µM).

With `CC[C@@H](CO)NCCN[C@@H](CC)CO` [EMB, ethambutol], the “Drug sensitivity test result” value is reported as “R” in test [1]; “S” with M. tuberculosis H37Rv; “S” in test [4]; “R” in test [9]; “R” in test [11]; “R” in test [12]. Further, the “Drug sensitivity test result” value in test [13] is recorded as “R”; in [14], “R”; in [16], “S”; in test [17], “R”. In addition, the MIC in test [2] is 1 µg/mL (≈ 4.89 µM); in test [3] it was more than 64 µg/mL; in test [5] it was 4 µg/mL (≈ 19.6 µM); in test [6] it was 4 µg/mL (≈ 19.6 µM); in [7], more than 16 µg/mL; in [8] it was 32 µg/mL (≈ 157 µM). The MIC in [10] is more than 16 µg/mL; in [15], more than 16 µg/mL; in test [18], 1 µg/mL (≈ 4.89 µM); in [19] it was 1 µg/mL (≈ 4.89 µM).

Consider `[H]/N=C(/N)N[C@H]1[C@H](O)[C@@H](O)[C@H](O[C@@H]2O[C@@H](C)[C@](O)(C=O)[C@H]2O[C@@H]2O[C@@H](CO)[C@H](O)[C@@H](O)[C@@H]2NC)[C@@H](N/C(N)=N\[H])[C@@H]1O` [SM, streptomycin], for which the “Drug sensitivity test result” value in test [1] is given as “R”; in the test with M. tuberculosis H37Rv, “S”; in [4], “S”; in test [9], “R”; in test [11], “R”; in test [12], “S”. Further, the “Drug sensitivity test result” value is reported as “S” in test [13], “R” in test [14], “S” in test [16] and “S” in [17]. The MIC turned out to be 0.125 µg/mL (≈ 0.215 µM) in test [2]; 4 µg/mL (≈ 6.88 µM) in test [3]; 0.125 µg/mL (≈ 0.215 µM) in test [5]; 0.5 µg/mL (≈ 0.86 µM) in test [6]; 0.5 µg/mL (≈ 0.86 µM) in test [7]; 4 µg/mL (≈ 6.88 µM) in [8]. Besides, the MIC in test [10] was 0.25 µg/mL (≈ 0.43 µM); in test [15], more than 4 µg/mL; in test [18], 0.125 µg/mL (≈ 0.215 µM); in test [19], 0.062 µg/mL (≈ 0.107 µM).

Regarding `NNC(=O)c1ccncc1` [INH, isoniazid], the “Drug sensitivity test result” value in test [1] is listed as “R”; in the test with M. tuberculosis H37Rv, “S”; in [4] it was “S”; in [9], “R”; in [11], “R”; in [12], “R”. Also, the “Drug sensitivity test result” value in test [13] is reported as “S”; in test [14] it was “R”; in test [16], “S”; in [17], “R”. Further, the MIC was 0.125 µg/mL (≈ 0.911 µM) in [2]; more than 16 µg/mL in [3]; 0.062 µg/mL (≈ 0.452 µM) in test [5]; 1 µg/mL (≈ 7.29 µM) in [6]; less than 1 µg/mL in [7]; 2 µg/mL (≈ 14.6 µM) in test [8]. Also, the MIC in test [10] is more than 1 µg/mL; in test [15], more than 1 µg/mL; in test [18], 0.125 µg/mL (≈ 0.911 µM); in test [19] it was 0.062 µg/mL (≈ 0.452 µM).
